After the bases stand the sugars from the 5' end (letter, count) and the backbone: PS all phosphorothioate, else s phosphorothioate and o phosphodiester by linkage. Methylation of C is not given here. e = 2'-O-(2-methoxyethyl) (MOE); k = constrained ethyl (cEt); d = 2'-deoxy (DNA); m = 2'-O-methyl
Target: HSD17B13
Settings: ASO, HepaRG

GTATTCCATCTATCAG (sugars kkdddddddddkekek, PS)
target mRNA inhibition (1 µM): 48%

GTATTTCGCTACTGTA (sugars k3 d10 k3, PS)
target mRNA inhibition (0.02 µM): 0%
target mRNA inhibition (0.078 µM): 0%
target mRNA inhibition (0.313 µM): 24%
target mRNA inhibition (1 µM): 76%
target mRNA inhibition (1.25 µM): 64%
target mRNA inhibition (5 µM): 86%

GTCAAAAACCGTCAAA (sugars k3 d10 k3, PS)
target mRNA inhibition (1 µM): 39%

GTCACCTTTCATAATG (sugars kkdddddddddkekek, PS)
target mRNA inhibition (1 µM): 4%

GTCCAGAAGTATGTGA (sugars k3 d10 k3, PS)
target mRNA inhibition (1 µM): 9%

GTCCAGGTTGAGATAA (sugars k3 d10 k3, PS)
target mRNA inhibition (1 µM): 60%

GTCCTAGGATGTTGAC (sugars k3 d10 k3, PS)
target mRNA inhibition (1 µM): 1%

GTCCTTGTGTAGTCCT (sugars k3 d10 k3, PS)
target mRNA inhibition (1 µM): 62%

GTCGGTCACCTTTCAT (sugars k3 d1 m1 d8 k3, PS)
target mRNA inhibition (1 µM): 66%

GTCGGTCACCTTTCAT (sugars k3 d10 k3, PS)
target mRNA inhibition (0.02 µM): 16%
target mRNA inhibition (0.078 µM): 37%
target mRNA inhibition (0.313 µM): 57%
target mRNA inhibition (1 µM): 85%
target mRNA inhibition (1.25 µM): 82%
target mRNA inhibition (5 µM): 90%

GTCTAAACATCTCTGG (sugars k3 d9 k3 e1, PS)
target mRNA inhibition (1 µM): 49%

GTCTAAACATCTCTGG (sugars kkdddddddddkekek, PS)
target mRNA inhibition (1 µM): 50%

GTCTACCTCTAAGTTA (sugars k3 d9 k3 e1, PS)
target mRNA inhibition (1 µM): 41%

GTCTUAAACCTTCCCT (sugars k3 d1 m1 d8 k3, PS)
target mRNA inhibition (1 µM): 35%

GTGACATAACTACTTC (sugars k3 d10 k3, PS)
target mRNA inhibition (1 µM): 68%

GTGATTGAGTTCTCCA (sugars k3 d10 k3, PS)
target mRNA inhibition (0.02 µM): 10%
target mRNA inhibition (0.078 µM): 14%
target mRNA inhibition (0.313 µM): 32%
target mRNA inhibition (1 µM): 80%
target mRNA inhibition (1.25 µM): 73%
target mRNA inhibition (5 µM): 83%

GTGCATCTTAAGATAC (sugars kkdddddddddkekek, PS)
target mRNA inhibition (1 µM): 20%

GTGCCAAACCAATGTT (sugars kkdddddddddkekek, PS)
target mRNA inhibition (1 µM): 38%

GTGCTTTTGTGATCCA (sugars k3 d10 k3, PS)
target mRNA inhibition (1 µM): 62%

GTGGCATGGCTACAGA (sugars k3 d9 k3 e1, PS)
target mRNA inhibition (1 µM): 38%

GTGGCCATGATTTCTC (sugars k3 d10 k3, PS)
target mRNA inhibition (1 µM): 40%

GTGGCCGCACACTGAA (sugars k3 d10 k3, PS)
target mRNA inhibition (1 µM): 41%

GTGTTAGCTTTAATTT (sugars k3 d10 k3, PS)
target mRNA inhibition (1 µM): 48%

GTGTTCTTGTTGATAT (sugars k3 d9 k3 e1, PS)
target mRNA inhibition (1 µM): 66%

GTGTTTACAAGTAAGA (sugars k3 d10 k3, PS)
target mRNA inhibition (1 µM): 79%

GTGTUCTTGTTGATAT (sugars k3 d1 m1 d8 k3, PS)
target mRNA inhibition (1 µM): 52%

GTTACATTACAGCCTT (sugars k3 d10 k3, PS)
target mRNA inhibition (0.02 µM): 0%
target mRNA inhibition (0.078 µM): 18%
target mRNA inhibition (0.313 µM): 50%
target mRNA inhibition (1 µM): 71%
target mRNA inhibition (1.25 µM): 73%
target mRNA inhibition (5 µM): 86%

GTTATACAGAAGACAG (sugars k3 d10 k3, PS)
target mRNA inhibition (1 µM): 54%

GTTATTAGAAGTCAGC (sugars k3 d10 k3, PS)
target mRNA inhibition (1 µM): 56%

GTTATTCTCTTGACAA (sugars kkdddddddddkekek, PS)
target mRNA inhibition (1 µM): 27%

GTTCAACTGAACCTCT (sugars k3 d10 k3, PS)
target mRNA inhibition (1 µM): 55%

GTTCTTGTTGATATTC (sugars k3 d9 k3 e1, PS)
target mRNA inhibition (1 µM): 69%

GTTGAGATAAAGCTGC (sugars k3 d9 k3 e1, PS)
target mRNA inhibition (1 µM): 59%

GTTGAGATAAAGCTGC (sugars k3 d10 k3, PS)
target mRNA inhibition (1 µM): 54%

GTTGCACCGTTTTGGG (sugars k3 d1 m1 d8 k3, PS)
target mRNA inhibition (1 µM): 38%

GTTTACTCACTTCTGG (sugars k3 d10 k3, PS)
target mRNA inhibition (1 µM): 29%

GTTTAGCTGATAGGCT (sugars k3 d10 k3, PS)
target mRNA inhibition (1 µM): 47%

GTTTCAACTAAACATG (sugars k3 d10 k3, PS)
target mRNA inhibition (1 µM): 65%

GTTTCCTCCACACCGC (sugars k3 d10 k3, PS)
target mRNA inhibition (1 µM): 45%

GTTTCTAGGTCAGTAG (sugars k3 d10 k3, PS)
target mRNA inhibition (1 µM): 73%

GTTTCTTATGTAATAG (sugars k3 d10 k3, PS)
target mRNA inhibition (1 µM): 46%

GTTTCTTATGTAATAG (sugars kkdddddddddkekek, PS)
target mRNA inhibition (1 µM): 21%

GTTTCTTATGTAATAG (sugars kkkddddkddddkkke, PS)
target mRNA inhibition (1 µM): 44%

GTTTGACTGCTGCTAG (sugars k3 d10 k3, PS)
target mRNA inhibition (1 µM): 58%

GTTTTCGGCACTCAGC (sugars k3 d10 k3, PS)
target mRNA inhibition (1 µM): 51%

GTTTTTAAGAGGCATG (sugars k3 d10 k3, PS)
target mRNA inhibition (1 µM): 63%

GTTTTTAAGAGGCATG (sugars kkdddddddddkekek, PS)
target mRNA inhibition (0.02 µM): 15%
target mRNA inhibition (0.078 µM): 13%
target mRNA inhibition (0.313 µM): 12%
target mRNA inhibition (1 µM): 79%
target mRNA inhibition (1.25 µM): 61%
target mRNA inhibition (5 µM): 71%

GTTTTTTGAACCGTAT (sugars k3 d10 k3, PS)
target mRNA inhibition (0.02 µM): 0%
target mRNA inhibition (0.078 µM): 0%
target mRNA inhibition (0.313 µM): 9%
target mRNA inhibition (1 µM): 71%
target mRNA inhibition (1.25 µM): 56%
target mRNA inhibition (5 µM): 74%

GTTTUGGGCTAATGAA (sugars k3 d1 m1 d8 k3, PS)
target mRNA inhibition (1 µM): 30%

TAAAAATTGGCCTCCT (sugars k3 d10 k3, PS)
target mRNA inhibition (1 µM): 29%

TAAAATAGAGTCGGTC (sugars k3 d10 k3, PS)
target mRNA inhibition (0.02 µM): 1%
target mRNA inhibition (0.078 µM): 9%
target mRNA inhibition (0.313 µM): 47%
target mRNA inhibition (1 µM): 81%
target mRNA inhibition (1.25 µM): 80%
target mRNA inhibition (5 µM): 90%

TAAACATCTCTGGGAC (sugars k3 d10 k3, PS)
target mRNA inhibition (1 µM): 51%

TAAACCTTCCCTGTGT (sugars kkdddddddddkekek, PS)
target mRNA inhibition (1 µM): 9%

TAAATTACTCCGTTCT (sugars k3 d10 k3, PS)
target mRNA inhibition (1 µM): 36%

TAACATTCGGCTAGGC (sugars k3 d10 k3, PS)
target mRNA inhibition (1 µM): 52%

TAACTCTATTGATTGG (sugars k3 d10 k3, PS)
target mRNA inhibition (1 µM): 51%

TAAGAGGCATGAAAGG (sugars k3 d1 m1 d8 k3, PS)
target mRNA inhibition (1 µM): 50%

TAAGAGTCAGTATCCT (sugars k3 d10 k3, PS)
target mRNA inhibition (1 µM): 52%

TAAGATACCCAGGTTG (sugars kkdddddddddkekek, PS)
target mRNA inhibition (1 µM): 30%

TAAGCAGAATTGTGAA (sugars k3 d10 k3, PS)
target mRNA inhibition (1 µM): 35%

TAAGGAGTAGTGGAGC (sugars k3 d10 k3, PS)
target mRNA inhibition (1 µM): 18%

TAAGGCAAAGATCTGG (sugars k3 d10 k3, PS)
target mRNA inhibition (1 µM): 46%

TAAGTTACCAGAGCAT (sugars k3 d10 k3, PS)
target mRNA inhibition (0.02 µM): 0%
target mRNA inhibition (0.078 µM): 0%
target mRNA inhibition (0.313 µM): 30%
target mRNA inhibition (1 µM): 77%
target mRNA inhibition (1.25 µM): 71%
target mRNA inhibition (5 µM): 91%

TAATACATTAGCAAGC (sugars k3 d10 k3, PS)
target mRNA inhibition (1 µM): 33%

TAATACATTAGCAAGC (sugars kkdddddddddkekek, PS)
target mRNA inhibition (1 µM): 34%

TAATAGCCAGTACAGT (sugars k3 d10 k3, PS)
target mRNA inhibition (1 µM): 64%

TAATCACAAGTAAGGT (sugars k3 d10 k3, PS)
target mRNA inhibition (1 µM): 54%

TAATGAATCATGATTG (sugars k3 d10 k3, PS)
target mRNA inhibition (1 µM): 2%

TAATTGCATCTGCTCG (sugars k3 d10 k3, PS)
target mRNA inhibition (1 µM): 46%

TAATTTTCAGATCCCG (sugars k3 d10 k3, PS)
target mRNA inhibition (0.02 µM): 0%
target mRNA inhibition (0.078 µM): 9%
target mRNA inhibition (0.313 µM): 41%
target mRNA inhibition (1 µM): 75%
target mRNA inhibition (1.25 µM): 62%
target mRNA inhibition (5 µM): 89%

TAATTTTCGGGTTCTT (sugars k3 d10 k3, PS)
target mRNA inhibition (1 µM): 40%

TACAACCTGGTTTCAT (sugars k3 d10 k3, PS)
target mRNA inhibition (1 µM): 25%

TACAGATTGGAATGCT (sugars k3 d9 k3 e1, PS)
target mRNA inhibition (1 µM): 66%

TACAGGCCATAATCTT (sugars k3 d10 k3, PS)
target mRNA inhibition (1 µM): 16%

TACATTAGCAAGCTAA (sugars k3 d10 k3, PS)
target mRNA inhibition (1 µM): 29%

TACCAGAGCATTCATC (sugars k3 d10 k3, PS)
target mRNA inhibition (1 µM): 55%

TACCTCTAAGTTAGCC (sugars k3 d10 k3, PS)
target mRNA inhibition (1 µM): 28%

TACCTTATTAATATCC (sugars k3 d10 k3, PS)
target mRNA inhibition (1 µM): 54%

TACTGTCCCAGCATTA (sugars k3 d10 k3, PS)
target mRNA inhibition (1 µM): 21%

TACTTGAACAGTCTTA (sugars k3 d9 k3 e1, PS)
target mRNA inhibition (1 µM): 65%

TACTTGAACAGTCTTA (sugars k3 d10 k3, PS)
target mRNA inhibition (1 µM): 48%

TAGAATACGCTGAGAG (sugars k3 d10 k3, PS)
target mRNA inhibition (1 µM): 47%

TAGAATAGTCTTCAGC (sugars k3 d10 k3, PS)
target mRNA inhibition (0.02 µM): 0%
target mRNA inhibition (0.078 µM): 0%
target mRNA inhibition (0.313 µM): 16%
target mRNA inhibition (1 µM): 70%
target mRNA inhibition (1.25 µM): 52%
target mRNA inhibition (5 µM): 77%

TAGAGGGTCCACTTTT (sugars k3 d10 k3, PS)
target mRNA inhibition (1 µM): 36%

TAGAGTCGGTCACCTT (sugars k3 d10 k3, PS)
target mRNA inhibition (1 µM): 65%

TAGAGTGAATCATTCA (sugars k3 d10 k3, PS)
target mRNA inhibition (0.02 µM): 16%
target mRNA inhibition (0.078 µM): 33%
target mRNA inhibition (0.313 µM): 60%
target mRNA inhibition (1 µM): 75%
target mRNA inhibition (1.25 µM): 84%
target mRNA inhibition (5 µM): 92%

TAGCAAAACACTTGCT (sugars k3 d10 k3, PS)
target mRNA inhibition (1 µM): 21%

TAGCAAGCCAACAGAG (sugars k3 d10 k3, PS)
target mRNA inhibition (1 µM): 21%

TAGCAATTTAGCAAGA (sugars k3 d10 k3, PS)
target mRNA inhibition (1 µM): 54%

TAGCTAAGGGAGAGTG (sugars k3 d10 k3, PS)
target mRNA inhibition (1 µM): 9%

TAGCTAAGTATACTTT (sugars k3 d10 k3, PS)
target mRNA inhibition (1 µM): 10%

From the OligoGym collection
